What all share (assay type): binding
Assay [1] concerns the target T1, panel of 442 kinases (Homo sapiens, UniProt P07332).
T1 construct: purchased KINOMEscan
The note with it: Compound Concentration 10 µM. The source says:
(§1) We assessed the selectivity of members of this scaffold using the KINOMEscan methodology across a near comprehensive panel of 442 kinases [[18,27]].

The target in assay [2] is T2, panel of 442 kinases (Homo sapiens, UniProt P31152).
T2 construct: purchased KINOMEscan
The note with it: Compound Concentration 10 µM.
Source text: as §1

Assay [3] has as its target T3, panel of 442 kinases (Homo sapiens, UniProt P36897).
T3 construct: purchased KINOMEscan
T3 sequence (P36897 34-503): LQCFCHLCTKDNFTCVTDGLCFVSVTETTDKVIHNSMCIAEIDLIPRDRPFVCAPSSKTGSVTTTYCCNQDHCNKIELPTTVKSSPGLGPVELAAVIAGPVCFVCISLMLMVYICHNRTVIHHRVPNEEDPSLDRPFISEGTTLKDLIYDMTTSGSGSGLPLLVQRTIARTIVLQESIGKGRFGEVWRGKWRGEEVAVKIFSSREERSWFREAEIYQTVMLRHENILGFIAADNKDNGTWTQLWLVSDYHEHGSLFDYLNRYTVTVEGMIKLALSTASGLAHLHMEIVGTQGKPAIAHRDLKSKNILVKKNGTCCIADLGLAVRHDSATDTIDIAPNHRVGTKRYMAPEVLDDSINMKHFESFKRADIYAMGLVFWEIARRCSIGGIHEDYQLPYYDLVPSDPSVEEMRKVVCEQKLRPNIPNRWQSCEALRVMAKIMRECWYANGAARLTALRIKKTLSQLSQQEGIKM
The note with it: kinase TGFBR1; compound concentration 10 µM.
Source text: as §1

T2 sequence (P31152 whole entry): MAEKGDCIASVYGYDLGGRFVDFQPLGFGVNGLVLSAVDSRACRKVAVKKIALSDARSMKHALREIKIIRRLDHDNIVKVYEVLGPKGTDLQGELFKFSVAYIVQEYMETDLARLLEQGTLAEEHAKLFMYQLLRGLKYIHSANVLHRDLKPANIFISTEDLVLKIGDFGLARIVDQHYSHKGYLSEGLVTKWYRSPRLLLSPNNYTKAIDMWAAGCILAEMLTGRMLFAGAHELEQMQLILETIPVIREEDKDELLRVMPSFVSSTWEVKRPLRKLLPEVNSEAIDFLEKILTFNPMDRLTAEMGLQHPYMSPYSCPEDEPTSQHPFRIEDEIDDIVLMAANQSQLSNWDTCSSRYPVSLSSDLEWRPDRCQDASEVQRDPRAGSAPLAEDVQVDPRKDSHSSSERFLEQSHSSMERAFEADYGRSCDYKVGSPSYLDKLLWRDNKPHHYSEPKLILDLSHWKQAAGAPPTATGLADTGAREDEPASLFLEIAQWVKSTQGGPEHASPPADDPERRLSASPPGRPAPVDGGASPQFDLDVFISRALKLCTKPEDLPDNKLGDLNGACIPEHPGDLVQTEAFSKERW
T1 sequence (P07332 whole entry): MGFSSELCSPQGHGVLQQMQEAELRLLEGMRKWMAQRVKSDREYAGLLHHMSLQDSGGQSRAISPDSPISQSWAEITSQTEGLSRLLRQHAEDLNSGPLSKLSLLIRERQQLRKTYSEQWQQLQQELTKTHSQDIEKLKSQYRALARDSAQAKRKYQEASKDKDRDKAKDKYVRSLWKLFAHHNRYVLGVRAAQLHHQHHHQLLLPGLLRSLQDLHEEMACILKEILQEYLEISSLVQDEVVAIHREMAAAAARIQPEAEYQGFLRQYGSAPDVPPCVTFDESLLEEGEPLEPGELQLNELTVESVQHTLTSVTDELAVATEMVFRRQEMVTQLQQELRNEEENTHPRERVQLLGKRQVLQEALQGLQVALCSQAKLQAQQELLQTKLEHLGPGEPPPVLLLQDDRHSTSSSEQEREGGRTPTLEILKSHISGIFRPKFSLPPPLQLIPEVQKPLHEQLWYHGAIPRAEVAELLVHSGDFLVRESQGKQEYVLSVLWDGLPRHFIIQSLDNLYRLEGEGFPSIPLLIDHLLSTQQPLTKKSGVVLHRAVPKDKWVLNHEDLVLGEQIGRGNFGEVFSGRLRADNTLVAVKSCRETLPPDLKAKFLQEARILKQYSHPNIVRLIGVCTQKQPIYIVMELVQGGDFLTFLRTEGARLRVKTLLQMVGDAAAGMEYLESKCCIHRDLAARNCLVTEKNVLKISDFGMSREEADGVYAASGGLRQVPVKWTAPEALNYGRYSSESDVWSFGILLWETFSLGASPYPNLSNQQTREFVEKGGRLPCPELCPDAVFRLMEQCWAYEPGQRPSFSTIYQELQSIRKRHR

Regarding `COc1cc(C(=O)N2CCC(N3CCN(C)CC3)CC2)ccc1Nc1ncc2c(n1)N(C1CCCC1)c1ccccc1C(=O)N2C` [Compound 25, 11-cyclopentyl-2-((2-methoxy-4-(4-(4-methylpiperazin-1-yl)piperidine-1-carbonyl)phenyl)amino)-5-methyl-5H-benzo[e]pyrimido[5,4-b][1,4]diazepin-6(11H)-one], on panel of 442 kinases [1], the “KINOMEscan: FES” value came to 89. Also, on panel of 442 kinases [2], the “KINOMEscan: ERK4” value was found to be 100. In addition, the “% Ctrl, TGFBR1” value on panel of 442 kinases [3] was 98 % Ctrl.
As to `COc1cc(C(=O)N2CCC(N3CCN(C)CC3)CC2)ccc1Nc1ncc2c(n1)N1CCc3cccc(c31)C(=O)N2C` [Compound 24], the “% Ctrl, TGFBR1” value at panel of 442 kinases [3] was 100 % Ctrl.
Turning to `COc1cc(C(=O)N2CCC(N3CCN(C)CC3)CC2)ccc1Nc1ncc2c(n1)N(C)c1ccccc1C(=O)N2C` [15 (LRRK2-IN-1)], the “KINOMEscan: FES” value on panel of 442 kinases [1] is on record as 84. On panel of 442 kinases [2], the “KINOMEscan: ERK4” value turned out to be 100. The “% Ctrl, TGFBR1” value at panel of 442 kinases [3] was determined as 100 % Ctrl.
On to `CCOc1cc(C(=O)N2CCC(N3CCN(C)CC3)CC2)ccc1Nc1ncc2c(n1)N(C1CCCC1)c1ccccc1C(=O)N2C` [Compound 26], for which the “KINOMEscan: FES” value on panel of 442 kinases [1] came to 100. Further, the “KINOMEscan: ERK4” value on panel of 442 kinases [2] is given as 100. Besides, on panel of 442 kinases [3], the “% Ctrl, TGFBR1” value came out at 100 % Ctrl.

These data come from article PMC3914206.
